# Data from BindingDB's records for doi:10.1016/j.bmcl.2016.04.030 (Galecto Biotech, 2016).
# How the values were obtained:
# [1] = Antagonist activity at P2Y12 receptor in human platelets assessed as inhibition of ADP-induced platelet aggregation by microplate reader analysis
# [2] = Antagonist activity at P2Y12 receptor in human platelets assessed as inhibition of ADP-induced platelet aggregation by turbidimetric method
SMILES,IC50 [1] [µM],IC50 [2] [µM]
Nc1ncnc2c1ncn2[C@@H]1O[C@H](COP(=O)(O)OP(=O)(O)C(Cl)(Cl)P(=O)(O)O)[C@@H](O)[C@H]1O,,316
CCCSc1nc(N)c2ncn([C@@H]3O[C@H](COP(=O)(O)OP(=O)(O)C(Cl)(Cl)P(=O)(O)O)[C@@H](O)[C@H]3O)c2n1,,0.0025
Nc1ncnc2c1ncn2[C@@H]1O[C@H](CO[P@@](=O)(O)O[P@](=O)(O)OP(=O)(O)O)[C@@H](O)[C@H]1O [ATP],,251

# More lines, now with the values ahead:
IC50 [1] [µM],IC50 [2] [µM],SMILES
< 10,,CNc1cc2[nH]c(=O)n(-c3ccc(NC(=O)NS(=O)(=O)c4ccc(Cl)s4)cc3)c(=O)c2cc1F [ELINOGREL]
,0.000794,O=P(O)(OC[C@H]1O[C@@H](n2cnc3c(NCC(F)(F)F)nc(SCCC(F)(F)F)nc32)[C@H](O)[C@@H]1O)OP(=O)(O)C(Cl)(Cl)P(=O)(O)O
